Measured values reported in patent US4464385A, “Treatment of diabetic complications with hydantoins” (Alcon Laboratories, Inc., priority 1982, dated 1984).

System: cataracts in rats
Assay: Prevention or retardation of cataracts in galactose-fed rats
Format: in vivo, rat
Settings: 30% galactose diet, A,C,E 0.0025%, B,D 0.01%
In short: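 Twelve rats per treatment, after two days on chow, were fed compound/diet mixtures ad libitum from Study Day 1 for thirty days; the 0.01% level was designed for 20 mg/kg/day. Cataracts were scored per eye using ophthalmoscope and/or penlight.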

O=C1NC(=O)C2(CCOc3ccc(F)cc32)N1 (stereo not drawn) [E]
% of Total Eyes, + (vacuole) (Study Day 2): 0% | % of Total Eyes, - (Normal) (Study Day 2): 100.0% | % of Total Eyes, N (nuclear cataract) (Study Day 2): 0% | % of Total Eyes, S (snowflake) (Study Day 2): 0% | Number of Eyes Observed, + (vacuole) (Study Day 2): 0 eyes | Number of Eyes Observed, - (Normal) (Study Day 2): 24 eyes | Number of Eyes Observed, N (nuclear cataract) (Study Day 2): 0 eyes | Number of Eyes Observed, S (snowflake) (Study Day 2): 0 eyes | Number of Eyes Observed, ± (Study Day 2): 0 eyes | % of Total Eyes, + (vacuole) (Study Day 3): 0% | % of Total Eyes, - (Normal) (Study Day 3): 100.0% | % of Total Eyes, N (nuclear cataract) (Study Day 3): 0% | % of Total Eyes, S (snowflake) (Study Day 3): 0% | Number of Eyes Observed, + (vacuole) (Study Day 3): 0 eyes | Number of Eyes Observed, - (Normal) (Study Day 3): 24 eyes | Number of Eyes Observed, N (nuclear cataract) (Study Day 3): 0 eyes | Number of Eyes Observed, S (snowflake) (Study Day 3): 0 eyes | Number of Eyes Observed, ± (Study Day 3): 0 eyes | % of Total Eyes, + (vacuole) (Study Day 4): 0% | % of Total Eyes, - (Normal) (Study Day 4): 100.0% | % of Total Eyes, N (nuclear cataract) (Study Day 4): 0% | % of Total Eyes, S (snowflake) (Study Day 4): 0% | Number of Eyes Observed, + (vacuole) (Study Day 4): 0 eyes | Number of Eyes Observed, - (Normal) (Study Day 4): 24 eyes | Number of Eyes Observed, N (nuclear cataract) (Study Day 4): 0 eyes | Number of Eyes Observed, S (snowflake) (Study Day 4): 0 eyes | Number of Eyes Observed, ± (Study Day 4): 0 eyes | % of Total Eyes, + (vacuole) (Study Day 5): 0% | % of Total Eyes, - (Normal) (Study Day 5): 100.0% | % of Total Eyes, N (nuclear cataract) (Study Day 5): 0% | % of Total Eyes, S (snowflake) (Study Day 5): 0% | Number of Eyes Observed, + (vacuole) (Study Day 5): 0 eyes | Number of Eyes Observed, - (Normal) (Study Day 5): 24 eyes | Number of Eyes Observed, N (nuclear cataract) (Study Day 5): 0 eyes | Number of Eyes Observed, S (snowflake) (Study Day 5): 0 eyes | Number of Eyes Observed, ± (Study Day 5): 0 eyes | % of Total Eyes, + (vacuole) (Study Day 6): 0% | % of Total Eyes, - (Normal) (Study Day 6): 100.0% | % of Total Eyes, N (nuclear cataract) (Study Day 6): 0% | % of Total Eyes, S (snowflake) (Study Day 6): 0% | Number of Eyes Observed, + (vacuole) (Study Day 6): 0 eyes | Number of Eyes Observed, - (Normal) (Study Day 6): 24 eyes | Number of Eyes Observed, N (nuclear cataract) (Study Day 6): 0 eyes | Number of Eyes Observed, S (snowflake) (Study Day 6): 0 eyes | Number of Eyes Observed, ± (Study Day 6): 0 eyes | % of Total Eyes, + (vacuole) (Study Day 8): 0% | % of Total Eyes, - (Normal) (Study Day 8): 100.0% | % of Total Eyes, N (nuclear cataract) (Study Day 8): 0% | % of Total Eyes, S (snowflake) (Study Day 8): 0% | Number of Eyes Observed, + (vacuole) (Study Day 8): 0 eyes | Number of Eyes Observed, - (Normal) (Study Day 8): 24 eyes | Number of Eyes Observed, N (nuclear cataract) (Study Day 8): 0 eyes | Number of Eyes Observed, S (snowflake) (Study Day 8): 0 eyes | Number of Eyes Observed, ± (Study Day 8): 0 eyes | % of Total Eyes, + (vacuole) (Study Day 10): 0% | % of Total Eyes, - (Normal) (Study Day 10): 100.0% | % of Total Eyes, N (nuclear cataract) (Study Day 10): 0% | % of Total Eyes, S (snowflake) (Study Day 10): 0% | Number of Eyes Observed, + (vacuole) (Study Day 10): 0 eyes | Number of Eyes Observed, - (Normal) (Study Day 10): 24 eyes | Number of Eyes Observed, N (nuclear cataract) (Study Day 10): 0 eyes | Number of Eyes Observed, S (snowflake) (Study Day 10): 0 eyes | Number of Eyes Observed, ± (Study Day 10): 0 eyes | % of Total Eyes, + (vacuole) (Study Day 12): 0% | % of Total Eyes, - (Normal) (Study Day 12): 95.8% | % of Total Eyes, N (nuclear cataract) (Study Day 12): 0% | % of Total Eyes, S (snowflake) (Study Day 12): 0% | Number of Eyes Observed, + (vacuole) (Study Day 12): 0 eyes | Number of Eyes Observed, - (Normal) (Study Day 12): 23 eyes | Number of Eyes Observed, N (nuclear cataract) (Study Day 12): 0 eyes | Number of Eyes Observed, S (snowflake) (Study Day 12): 0 eyes | Number of Eyes Observed, ± (Study Day 12): 1 eyes | % of Total Eyes, + (vacuole) (Study Day 14): 0% | % of Total Eyes, - (Normal) (Study Day 14): 87.5% | % of Total Eyes, N (nuclear cataract) (Study Day 14): 0% | % of Total Eyes, S (snowflake) (Study Day 14): 0% | Number of Eyes Observed, + (vacuole) (Study Day 14): 0 eyes | Number of Eyes Observed, - (Normal) (Study Day 14): 21 eyes | Number of Eyes Observed, N (nuclear cataract) (Study Day 14): 0 eyes | Number of Eyes Observed, S (snowflake) (Study Day 14): 0 eyes | Number of Eyes Observed, ± (Study Day 14): 3 eyes | % of Total Eyes, + (vacuole) (Study Day 16): 0% | % of Total Eyes, - (Normal) (Study Day 16): 83.3% | % of Total Eyes, N (nuclear cataract) (Study Day 16): 0% | % of Total Eyes, S (snowflake) (Study Day 16): 0% | Number of Eyes Observed, + (vacuole) (Study Day 16): 0 eyes | Number of Eyes Observed, - (Normal) (Study Day 16): 20 eyes | Number of Eyes Observed, N (nuclear cataract) (Study Day 16): 0 eyes | Number of Eyes Observed, S (snowflake) (Study Day 16): 0 eyes | Number of Eyes Observed, ± (Study Day 16): 4 eyes | % of Total Eyes, + (vacuole) (Study Day 18): 0% | % of Total Eyes, - (Normal) (Study Day 18): 58.4% | % of Total Eyes, N (nuclear cataract) (Study Day 18): 0% | % of Total Eyes, S (snowflake) (Study Day 18): 0% | Number of Eyes Observed, + (vacuole) (Study Day 18): 0 eyes | Number of Eyes Observed, - (Normal) (Study Day 18): 14 eyes | Number of Eyes Observed, N (nuclear cataract) (Study Day 18): 0 eyes | Number of Eyes Observed, S (snowflake) (Study Day 18): 0 eyes | Number of Eyes Observed, ± (Study Day 18): 10 eyes | % of Total Eyes, + (vacuole) (Study Day 20): 4.2% | % of Total Eyes, - (Normal) (Study Day 20): 12.5% | % of Total Eyes, N (nuclear cataract) (Study Day 20): 0% | % of Total Eyes, S (snowflake) (Study Day 20): 41.6% | Number of Eyes Observed, + (vacuole) (Study Day 20): 1 eyes | Number of Eyes Observed, - (Normal) (Study Day 20): 3 eyes | Number of Eyes Observed, N (nuclear cataract) (Study Day 20): 0 eyes | Number of Eyes Observed, S (snowflake) (Study Day 20): 10 eyes | Number of Eyes Observed, ± (Study Day 20): 10 eyes | % of Total Eyes, + (vacuole) (Study Day 22): 8.3% | % of Total Eyes, - (Normal) (Study Day 22): 0% | % of Total Eyes, N (nuclear cataract) (Study Day 22): 0% | % of Total Eyes, S (snowflake) (Study Day 22): 66.7% | Number of Eyes Observed, + (vacuole) (Study Day 22): 2 eyes | Number of Eyes Observed, - (Normal) (Study Day 22): 0 eyes | Number of Eyes Observed, N (nuclear cataract) (Study Day 22): 0 eyes | Number of Eyes Observed, S (snowflake) (Study Day 22): 16 eyes | Number of Eyes Observed, ± (Study Day 22): 6 eyes | % of Total Eyes, + (vacuole) (Study Day 24): 12.5% | % of Total Eyes, - (Normal) (Study Day 24): 0% | % of Total Eyes, N (nuclear cataract) (Study Day 24): 0% | % of Total Eyes, S (snowflake) (Study Day 24): 83.3% | Number of Eyes Observed, + (vacuole) (Study Day 24): 3 eyes | Number of Eyes Observed, - (Normal) (Study Day 24): 0 eyes | Number of Eyes Observed, N (nuclear cataract) (Study Day 24): 0 eyes | Number of Eyes Observed, S (snowflake) (Study Day 24): 20 eyes | Number of Eyes Observed, ± (Study Day 24): 1 eyes | % of Total Eyes, + (vacuole) (Study Day 26): 16.7% | % of Total Eyes, - (Normal) (Study Day 26): 0% | % of Total Eyes, N (nuclear cataract) (Study Day 26): 0% | % of Total Eyes, S (snowflake) (Study Day 26): 83.3% | Number of Eyes Observed, + (vacuole) (Study Day 26): 4 eyes | Number of Eyes Observed, - (Normal) (Study Day 26): 0 eyes | Number of Eyes Observed, N (nuclear cataract) (Study Day 26): 0 eyes | Number of Eyes Observed, S (snowflake) (Study Day 26): 20 eyes | Number of Eyes Observed, ± (Study Day 26): 0 eyes | % of Total Eyes, + (vacuole) (Study Day 28): 8.3% | % of Total Eyes, - (Normal) (Study Day 28): 0% | % of Total Eyes, N (nuclear cataract) (Study Day 28): 0% | % of Total Eyes, S (snowflake) (Study Day 28): 91.7% | Number of Eyes Observed, + (vacuole) (Study Day 28): 2 eyes | Number of Eyes Observed, - (Normal) (Study Day 28): 0 eyes | Number of Eyes Observed, N (nuclear cataract) (Study Day 28): 0 eyes | Number of Eyes Observed, S (snowflake) (Study Day 28): 22 eyes | Number of Eyes Observed, ± (Study Day 28): 0 eyes | % of Total Eyes, + (vacuole) (Study Day 30): 4.2% | % of Total Eyes, - (Normal) (Study Day 30): 0% | % of Total Eyes, N (nuclear cataract) (Study Day 30): 0% | % of Total Eyes, S (snowflake) (Study Day 30): 95.8% | Number of Eyes Observed, + (vacuole) (Study Day 30): 1 eyes | Number of Eyes Observed, - (Normal) (Study Day 30): 0 eyes | Number of Eyes Observed, N (nuclear cataract) (Study Day 30): 0 eyes | Number of Eyes Observed, S (snowflake) (Study Day 30): 23 eyes | Number of Eyes Observed, ± (Study Day 30): 0 eyes
